Data on three compounds can be found in ChEMBL document CHEMBL5104178, “Nitroimidazopyrazinones with Oral Activity against Tuberculosis and Chagas Disease in Mouse Models of Infection” (J Med Chem, 2022).

Converted amounts (≈) assume the structure as drawn.

The test system of data set [1] is Mycolicibacterium smegmatis. The experiment in a line: Antimycobacterial activity against Mycobacterium smegmatis mc2155 ATCC 700084 assessed as bacterial growth inhibition incubated for 24 hrs under normoxic condition by resazurin microtiter assay. Format: functional. In general terms: The colour change of resazurin is a common sign of viable cells or microbes.

Data set [2] can be described thus: Tmax in CD-1 mouse at 25 mg/kg, po measured upto 48 hrs by LC/MS/MS analysis. Format: ADME, organism-based. Conditions: in vivo.
The subject of data set [3] is Mycobacterium tuberculosis. The data set can be described thus: Antimycobacterial activity against Mycobacterium tuberculosis H37Ra ATCC 25177 assessed as bacterial growth inhibition incubated for 6 days under normoxic condition by resazurin microtiter assay. Format: functional. Conditions: H37Ra ATCC 25177, 144 h, time 6 day.
Data set [4] concerns Mycobacterium tuberculosis. The data set can be described thus: Substrate activity at Mycobacterium tuberculosis Ddn expressed in Escherichia coli BL21 (DE3) assessed as oxidation of F420H2 by measuring Kcat/Km by spectrophotometric analysis.
Data set [5] can be described thus: Half life in CD-1 mouse at 10 mg/kg, iv measured upto 48 hrs by LC/MS/MS analysis. Conditions: in vivo. Format: ADME, organism-based.
Data set [6] in a line: Oral bioavailability in CD-1 mouse at 25 mg/kg measured upto 48 hrs by LC/MS/MS analysis. Conditions: in vivo. Format: ADME, organism-based.
For data set [7], the system named is Mycobacterium avium. The data set can be described thus: Antimycobacterial activity against Mycobacterium avium ATCC 25291 assessed as bacterial growth inhibition incubated for 6 days under normoxic condition by resazurin microtiter assay. Conditions: ATCC 25291, 144 h, time 6 day. Format: functional.
A short description of data set [8]: Cmax in CD-1 mouse at 25 mg/kg, po measured upto 48 hrs by LC/MS/MS analysis. Format: ADME, organism-based. Set-up: time < 48 hrs, dose 25 mg/kg, route po. Conditions: in vivo.
Data set [9] in a line: Half life in CD-1 mouse at 25 mg/kg, po measured upto 48 hrs by LC/MS/MS analysis. Format: ADME, organism-based. Conditions: in vivo.
Data set [10] relates to Mycobacterium tuberculosis. The experiment in a line: Substrate activity at Mycobacterium tuberculosis Ddn expressed in Escherichia coli BL21 (DE3) assessed as oxidation of F420H2 by measuring Kcat by spectrophotometric analysis.
Data set [11] can be described thus: Volume of distribution at steady state in CD-1 mouse at 10 mg/kg, iv measured upto 48 hrs by LC/MS/MS analysis. Format: ADME, organism-based. Conditions: in vivo, read-out: Vdss.
Data set [12] in a line: Clearance in CD-1 mouse at 10 mg/kg, iv measured upto 48 hrs by LC/MS/MS analysis. Format: ADME, organism-based. Conditions: in vivo.
The nature of data set [13]: AUC (0 to last) in CD-1 mouse at 25 mg/kg, po measured upto 48 hrs by LC/MS/MS analysis. Format: ADME, organism-based. Conditions: in vivo. Further details: dose 25 mg/kg, time < 48 hrs, route po.
Data set [14] has as its system Mycobacterium tuberculosis. The experiment in a line: Substrate activity at Mycobacterium tuberculosis Ddn expressed in Escherichia coli BL21 (DE3) assessed as oxidation of F420H2 by measuring Km by spectrophotometric analysis.
Data set [15] concerns Mycobacterium tuberculosis. The experiment in a line: Antimycobacterial activity against Mycobacterium tuberculosis H37Rv ATCC 27294 assessed as bacterial growth inhibition incubated for 5 days under hypoxic condition by resazurin microtiter assay. Conditions: H37Rv ATCC 27294, 120 h, time 5 day. Format: functional.
The subject of data set [16] is Mycobacterium tuberculosis. The data set can be described thus: Antimycobacterial activity against Mycobacterium tuberculosis H37Rv ATCC 27294 assessed as bacterial growth inhibition incubated for 5 days under normoxic condition by resazurin microtiter assay. Format: functional. Conditions: H37Rv ATCC 27294, 120 h, time 5 day.
For data set [17], the system named is Mycobacterium tuberculosis. The data set can be described thus: Antimycobacterial activity against Mycobacterium tuberculosis infected in BALB/c mouse assessed as log reduction in bacterial load in lung by measuring colony forming unit at 15 mg/kg, po administered 5 days per week for 3 weeks starting from day 10 post infection (reference value: 8.8 x 10^3 CFU). Format: functional.

The nature of data set [18]: Toxicity in BALB/c mouse infected with Mycobacterium tuberculosis assessed as body weight loss at 12.5 to 50 mg/kg, po administered 5 days per week for 3 weeks starting from day 10 post infection. Format: organism-based. Conditions: in vivo, 120 h, dose 12.5-50 mg/kg, time 5 day.
Data set [19] is described as follows: Plasma protein binding in human. Format: ADME, cell-free. Conditions: read-out: PPB (converted).
The nature of data set [20]: Toxicity in BALB/c mouse infected with Mycobacterium tuberculosis assessed as mortality at 12.5 to 50 mg/kg, po administered 5 days per week for 3 weeks starting from day 10 post infection. Format: organism-based. Conditions: in vivo, 504 h, dose 12.5-50 mg/kg.
Data set [21] can be described thus: Half life in CD-1 mouse at 5 mg/kg, iv administered as DMSO/PEG400 formulation measured upto 24 hrs by LC-MS/MS analysis. Format: ADME, organism-based. Conditions: in vivo.
A short description of data set [22]: Solubility of compound in water by LC-UV analysis. Format: physicochemical. Conditions: water; read-out: solubility.
The nature of data set [23]: Volume of distribution at steady state in CD-1 mouse at 5 mg/kg, iv administered as DMSO/PEG400 formulation measured upto 24 hrs by LC-MS/MS analysis. Format: ADME, organism-based. Conditions: in vivo, read-out: Vdss.
Data set [24] relates to Mycobacterium tuberculosis. The experiment in a line: Antimycobacterial activity against Mycobacterium tuberculosis infected in BALB/c mouse assessed as log reduction in bacterial load in lung by measuring colony forming unit at 50 mg/kg, po administered 5 days per week for 3 weeks starting from day 10 post infection (reference value: 8.8 x 10^3 CFU). Format: functional.

Data set [25] in a line: Tmax in CD-1 mouse at 20 mg/kg, po administered as DMSO/PEG400 formulation measured upto 24 hrs by LC-MS/MS analysis. Format: ADME, organism-based. Conditions: in vivo.
Data set [26] can be described thus: Plasma protein binding in mouse. Format: ADME, cell-free. Conditions: read-out: PPB (converted).
In data set [27] the test system is Mycobacterium tuberculosis. The data set can be described thus: Antimycobacterial activity against Mycobacterium tuberculosis infected in BALB/c mouse assessed as log reduction in bacterial load in lung by measuring colony forming unit at 12.5 mg/kg, po administered 5 days per week for 3 weeks starting from day 10 post infection (reference value: 8.8 x 10^3 CFU). Format: functional.

A short description of data set [28]: AUC(0 to 8 hrs) in CD-1 mouse at 20 mg/kg, po administered as DMSO/PEG400 formulation measured upto 24 hrs by LC-MS/MS analysis. Format: ADME, organism-based. Further details: dose 20 mg/kg, time < 24 hrs, route po. Conditions: in vivo.
Data set [29] can be described thus: Clearance in CD-1 mouse at 5 mg/kg, iv administered as DMSO/PEG400 formulation measured upto 24 hrs by LC-MS/MS analysis. Format: ADME, organism-based. Conditions: in vivo.
The nature of data set [30]: Cmax in CD-1 mouse at 20 mg/kg, po administered as DMSO/PEG400 formulation measured upto 24 hrs by LC-MS/MS analysis. Format: ADME, organism-based. Set-up: dose 20 mg/kg, time < 24 hrs, route po. Conditions: in vivo.
In data set [31] the test system is Mycobacterium tuberculosis. The experiment in a line: Antimycobacterial activity against Mycobacterium tuberculosis infected in BALB/c mouse assessed as log reduction in bacterial load in lung by measuring colony forming unit at 25 mg/kg, po administered 5 days per week for 3 weeks starting from day 10 post infection (reference value: 8.8 x 10^3 CFU). Format: functional.

The nature of data set [32]: Oral bioavailability in CD-1 mouse at 20 mg/kg administered as DMSO/PEG400 formulation measured upto 24 hrs by LC-MS/MS analysis. Conditions: in vivo. Format: ADME, organism-based.

Take `O=[N+]([O-])c1cn2c(n1)OC[C@@H](OCc1ccc(OC(F)(F)F)cc1)C2` [PRETOMANID]: the minimum inhibitory concentration (MIC) in [1] is above 32 µg/mL; in data set [3], at most 0.016 µg/mL; in data set [7] it was above 32 µg/mL. In addition, in data set [2], the Tmax turned out to be 2 h. For the same compound, the kcat/Km in data set [4] was 1260 M⁻¹ s⁻¹. The half-life in data set [5] was 1.6 h; in [9], 2.7 h. The bioavailability in data set [6] amounted to 100%. Further, the Cmax in [8] was determined as 6000 ng/mL. For the same compound, the kcat in [10] was 9.3 10^-3/s. Besides, the Vd in data set [11] is 1.6 L/kg. In addition, the clearance in data set [12] was 12.1 mL/min/kg. In data set [13], this compound gave an AUC(0-t) at 48 h of 50900 ng·h/mL. Moreover, the Michaelis-Menten constant (Km) in data set [14] came to 7.3 µM.
For the compound `CO[C@H]1/C=C/O[C@@]2(C)Oc3c(C)c(O)c4c(O)c(c(/C=N/N5CCN(C)CC5)c(O)c4c3C2=O)NC(=O)/C(C)=C\C=C\[C@H](C)[C@H](O)[C@@H](C)[C@@H](O)[C@@H](C)[C@H](OC(C)=O)[C@@H]1C` [RIFAMPIN], the minimal inhibitory concentration (MIC) in [15] was 0.08 µg/mL (≈ 0.0972 µM); in [1], 4 µg/mL (≈ 4.86 µM); in [3], below 0.016 µg/mL; in [7], 4 µg/mL (≈ 4.86 µM); in [16], 0.005 µg/mL (≈ 0.00608 µM). The “log(activity)” value in data set [17] is reported as 2.7.
As to `O=c1c2nc([N+](=O)[O-])cn2ccn1Cc1cccc(C(F)(F)F)c1`, the minimum inhibitory concentration (MIC) is 0.25 µg/mL (≈ 0.739 µM) in data set [15]; above 32 µg/mL in data set [1]; at most 0.016 µg/mL in data set [3]; above 32 µg/mL in data set [7]; 0.063 µg/mL (≈ 0.186 µM) in data set [16]. For the same compound, the Activity result in data set [18] and in [20] was “Non-Toxic” in each case. For the same compound, the figures for the fraction unbound in [19] and in [26] were 0.04 and 0.08, respectively. Besides, the half-life in data set [21] was 1.9 h. The catalytic efficiency (kcat/Km) in data set [4] was determined as 1650 M⁻¹ s⁻¹. The solubility in data set [22] stood at 2.9 µM (≈ 0.981 µg/mL). Moreover, the Vd in data set [23] came to 1.2 L/kg. The results for the “log(activity)” value in [24], in data set [27] and in [31] were 1.7, 0.75 and 1.1, respectively. Also, the time of peak concentration (Tmax) in data set [25] was 2.7 h. The AUC(0-t) at 24 h in data set [28] turned out to be 20800 ng·h/mL. The compound further showed a clearance in [29] of 7.66 mL/min/kg. In data set [10], the kcat is 1.6 10^-2/s. The concentration in data set [30] peaked (Cmax) at 3400 ng/mL. Moreover, the bioavailability in [32] worked out at 64%. For the same compound, in data set [14], the Michaelis constant (Km) was 9.4 µM.

Broadly, the MIC is the smallest concentration in the dilution series that meets the test's criterion for growth inhibition. Usually Tmax stands for the time at which the peak concentration occurs. By kcat/Km is commonly meant the turnover number divided by the Michaelis constant. A word on the half-life: it is the time needed for the level to fall by half in the phase considered. The term bioavailability denotes dose-corrected exposure relative to a reference, in per cent. Read a high bioavailability as much systemic uptake. What is called Cmax is the maximum level reached in the sampled fluid or tissue. One may read the kcat as the number of substrate molecules converted per active site and unit of time at saturation. The clearance is the rate of elimination divided by the concentration. Read a high clearance as efficient removal. The AUC(0-t) is the area under the concentration-time curve up to a stated or last time point. One may read the Km as the substrate concentration at which the rate is half of its maximum. A word on the solubility: it is how much of the substance goes into solution per volume.
